Read-outs that look alike come from different tables or passages of the source.
Key:
MCF-7/ADR cells [1] = test: Toxic effect of each derivative and VER alone (cell survival); type: cell-based; conditions: Homo sapiens, NCI/ADR-RES, 2 h incubation, read-out: cell survival ratio; for viability at 5 µM: mean (SD); for viability at 10 µM / viability at 25 µM / viability at 50 µM / viability at 100 µM: mean
Description: The effect of eight FA derivatives on cytotoxicity was studied in P-gp overexpressed human breast cancer cells (MCF-7/ADR) using the SRB assay. The details of the cell culture condition and the assay method were presented in our previous reports. […] The assay was performed in triplicate. […]
Data are presented as mean ± SD.
The numerical data were represented the cell survival ratio.

MCF-7/ADR cells [2] = test: Cytotoxicity of DNM with FA derivatives, SRB assay; type: cell-based, human; conditions: for IC50 of DNM as fraction of negative control (DNM alone) value: derivative 100 µM
Description: The effect of eight FA derivatives on cytotoxicity was studied in P-gp overexpressed human breast cancer cells (MCF-7/ADR) using the SRB assay. The details of the cell culture condition and the assay method were presented in our previous reports. […] The assay was performed in triplicate.

MCF-7/ADR cells [3] = test: [3H]-daunomycin accumulation study; type: cell-based, human; conditions: 100 µM, 2 h incubation, mean ± SD, triplicate
Description: (§1) The methods for [^3H]-DNM accumulation and efflux studies were reported previously. […] The experiments were performed in triplicate.
(§2) [^3H]-DNM uptake and efflux were determined after the incubation with each derivative (100 µM) for 2 h and 1 h, respectively. […] Control represents accumulation or efflux of tritium labeled DNM alone.

MCF-7/ADR cells [4] = test: [3H]-daunomycin efflux study; type: cell-based, human
Description: as §1, §2

human P-gp membranes = molecular target: T1, human P-gp membranes (Homo sapiens, UniProt P08183); test: Human P-glycoprotein ATPase activity assay; type: biochemical; conditions: for P-gp ATPase activity, ratio of blank (control): human P-gp membranes
T1 construct: purchased
Description: The ATPase activities were expressed as the rate of phosphate release per milligram of membrane protein and converted to the relative ratio versus the control. This assay was performed in duplicate.

[5] = Pharmacokinetic study of oral PTX alone or co-administered with compound 5c; type: in vivo, male Sprague-Dawley rats
Description: The pharmacokinetic (PK) study was performed using male Sprague-Dawley rats (6 weeks old and 200 g–235 g) commercially available from Orient Bio (Seongnam, Korea). All animal procedures were approved by the Institutional Animal Care and Use Committee of Ewha Womans University (No. 2012-01-019, approved on 3 April 2012), Republic of Korea.
Rats were divided into the following 4 groups: Oral administration (PO) of PTX (25 mg/kg) alone and co-administration of PTX (25 mg/kg) with compound 5c at three different doses (0.5, 2 and 5 mg/kg). Each group had 5 rats except for a group of 2 mg/kg dose (n = 4). The blood samples (0.2 mL) were collected from the common carotid artery at 0, 0.25, 0.5, 1, 2, 3, 4, 6, 8, 10 and 24 h.
PTX concentrations in rat plasma were analyzed by Agilent HP1100 series system using a Capcell-pak C18 MG120 column (3 mm × 250 mm, 5 µm, Shiseido, Tokyo, Japan). The samples were eluted with mobile phase composed of acetonitrile and 0.1% phosphoric acid (1/1, v/v) at a flow rate of 0.5 mL/min for 30 min and detected at a wavelength of 227 nm. The HPLC-UV method was validated by FDA guidelines as follows: Specificity (PTX: 14.8 min; internal standard: 26.7 min), linearity over the concentration range between 0.01 and 10 µg/mL, lower limit of quantification (0.01 µg/mL) and intra-/inter-day precision and accuracy (2.4–9.1% and 92.1–102.7%, respectively). All other details for sample preparation and quantification of PTX concentrations in rat plasma were reported previously.
The following PK parameters of PTX after oral single dosing to rats were estimated by non-compartmental analysis using WinNonlin® Professional version 5.2 software (Pharsight Corporation, Mountain View, CA, USA): The area under the plasma concentration-time curve from 0 h to infinity (AUCinf), elimination half-life (t1/2), apparent volume of distribution after oral single dosing (Vz/F), oral clearance (Cl/F), maximum plasma concentration (Cmax) and the time required to reach Cmax (Tmax). The relative bioavailability (RB, %) of PTX was calculated with the following formula: RB ( % )=AUCinf po co−administraion/AUCinf po control×100
AUCinf po control is the AUCinf obtained from oral single administration of PTX alone, and AUCinf po co-administration is the AUCinf obtained from oral single co-administration of PTX and compound 5c.

[6] = set-up: method as in PMID 24373826; conditions: rats; cited from earlier work
[7] = set-up: method as in PMID 24373826; conditions: humans; cited from earlier work
[8] = 100 µM, 1 h incubation, mean ± SD, triplicate

T1 sequence (P08183 whole entry): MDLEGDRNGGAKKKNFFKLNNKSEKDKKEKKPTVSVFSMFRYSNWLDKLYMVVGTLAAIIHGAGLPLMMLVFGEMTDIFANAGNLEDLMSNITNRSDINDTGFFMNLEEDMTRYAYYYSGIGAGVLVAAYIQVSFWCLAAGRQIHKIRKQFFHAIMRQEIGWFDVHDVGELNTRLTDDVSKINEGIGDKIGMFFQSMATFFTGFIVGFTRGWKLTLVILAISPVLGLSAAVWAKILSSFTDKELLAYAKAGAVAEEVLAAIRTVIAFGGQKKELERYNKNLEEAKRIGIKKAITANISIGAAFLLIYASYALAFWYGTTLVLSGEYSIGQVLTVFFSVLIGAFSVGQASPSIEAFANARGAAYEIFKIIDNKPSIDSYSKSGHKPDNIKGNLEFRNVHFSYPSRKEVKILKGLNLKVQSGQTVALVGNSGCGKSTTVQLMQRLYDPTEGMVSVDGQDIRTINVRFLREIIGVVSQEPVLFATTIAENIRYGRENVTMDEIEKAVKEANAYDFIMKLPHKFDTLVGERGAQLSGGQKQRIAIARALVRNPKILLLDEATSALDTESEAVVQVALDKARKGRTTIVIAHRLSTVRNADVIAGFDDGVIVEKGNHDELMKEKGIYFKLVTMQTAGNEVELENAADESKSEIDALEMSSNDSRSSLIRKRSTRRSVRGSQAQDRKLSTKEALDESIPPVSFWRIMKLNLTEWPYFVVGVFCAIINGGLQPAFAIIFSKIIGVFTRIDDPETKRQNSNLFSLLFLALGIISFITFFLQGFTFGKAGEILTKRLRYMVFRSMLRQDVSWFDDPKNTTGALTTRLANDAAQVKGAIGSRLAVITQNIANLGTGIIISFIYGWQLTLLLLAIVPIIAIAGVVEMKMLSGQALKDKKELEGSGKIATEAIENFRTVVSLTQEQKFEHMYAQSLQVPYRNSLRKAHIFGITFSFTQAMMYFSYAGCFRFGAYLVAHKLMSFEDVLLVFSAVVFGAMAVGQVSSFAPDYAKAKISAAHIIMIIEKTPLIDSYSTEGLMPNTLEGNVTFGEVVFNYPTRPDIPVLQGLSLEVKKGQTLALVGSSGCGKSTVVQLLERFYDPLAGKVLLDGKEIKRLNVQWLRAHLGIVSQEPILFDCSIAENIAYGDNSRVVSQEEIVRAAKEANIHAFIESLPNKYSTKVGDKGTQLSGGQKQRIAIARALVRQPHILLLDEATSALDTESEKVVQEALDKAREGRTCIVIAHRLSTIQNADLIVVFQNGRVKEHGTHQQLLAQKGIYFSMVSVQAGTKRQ

melting point [°C] | P-gp ATPase activity, ratio of blank (control) (human P-gp membranes; 20 μM) | P-gp ATPase activity, ratio of blank (control) (human P-gp membranes; 50 μM) | P-gp ATPase activity, ratio of blank (control) (human P-gp membranes; 100 μM) | Compound | viability at 5 µM (MCF-7/ADR cells [1]) [%] | viability at 10 µM (MCF-7/ADR cells [1]) [%] | viability at 25 µM (MCF-7/ADR cells [1]) [%] | viability at 50 µM (MCF-7/ADR cells [1]) [%] | viability at 100 µM (MCF-7/ADR cells [1]) [%] | IC50 of DNM as fraction of negative control (DNM alone) value (MCF-7/ADR cells [2]) | further results
91 to 92 |  |  |  | CCCOc1ccc(/C=C/C(=O)N2CCCCC2)cc1OC [Compound 5a, (E)-3-(3-methoxy-4-propoxyphenyl)-1-(piperidin-1-yl)prop-2-en-1-one] | 96.5 | 94.1 | 96 | 93.8 | 87.8 |  | 
 | 1.54 | 2.48 | 4.02 | COc1cc(/C=C/C(=O)N2CCCCC2)ccc1OCc1ccccc1 [Compound 5c, (E)-3-(4-benzyloxy-3-methoxyphenyl)-1-(piperidin-1-yl)prop-2-en-1-one] | 101 | 98.5 | 96.1 | 96.9 | 87.6 | about 1/5 | accumulation of [3H]-DNM (MCF-7/ADR cells [3]): 438.4 ± 4.9%; efflux of [3H]-DNM (MCF-7/ADR cells [4]; [8]): 43.1 ± 4.6%; Concentration dependence of P-gp ATPase activity (human P-gp membranes; 20, 50 and 100 μM): stably increased ATPase activity in a concentration-dependent manner; Cl/F of PTX ([5]; PTX 25 mg/kg PO co-administered with compound 5c 2 mg/kg, rats): 4.10 ± 1.53 L/h; Cl/F of PTX ([5]; PTX 25 mg/kg PO co-administered with compound 5c 5 mg/kg, rats): 4.53 ± 1.04 L/h; Effect on PK parameters of PTX ([5]; compound 5c 0.5 mg/kg co-administered, compared to PO control (PTX alone)): did not alter any PK parameters of PTX; Improvement of the BA of PTX ([5]; compound 5c 5 mg/kg co-administered with PTX in rats): approximately twofold
108 to 109 |  |  |  | CCCOc1ccc(/C=C/C(=O)N(C)C)cc1OC [Compound 5d, (E)-3-(3-methoxy-4-propoxyphenyl)-N,N-dimethylacrylamide] | 102 | 97.8 | 97.1 | 97.1 | 96.2 |  | 
 | 2.85 | 3.12 | 3.35 | CCCOc1ccc(/C=C/C(=O)N(C)Cc2ccccc2)cc1OC [Compound 5f, (E)-N-benzyl-3-(3-methoxy-4-propoxyphenyl)-N-methylacrylamide] | 98.9 | 99.4 | 100 | 96.9 | 92.8 | about 1/5 | 
135 to 136 | 1.26 | 1.77 | 5.19 | COc1cc(/C=C/C(=O)N(C)C)ccc1OCc1ccccc1 [Compound 5g, (E)-3-(4-benzyloxy-3-methoxyphenyl)-N,N-dimethylacrylamide] | 104 | 102 | 100 | 99.3 | 102 | about 1/5 | 
163 to 164 | 3.99 | 2.69 | 2.79 | CCCOc1ccc(/C=C/C(=O)N2CCC(O)(c3ccccc3)CC2)cc1OC [Compound 5h, (E)-1-(4-hydroxy-4-phenylpiperidin-1-yl)-3-(3-methoxy-4-propoxyphenyl) prop-2-en-1-one] | 103 | 99.2 | 94.6 | 89.4 | 89.6 | about 1/5 | accumulation of [3H]-DNM (MCF-7/ADR cells [3]): 426.1 ± 26.2%; efflux of [3H]-DNM (MCF-7/ADR cells [4]; [8]): 43.3 ± 0.9%
 |  |  |  | COc1cccc2c1C(=O)c1c(O)c3c(c(O)c1C2=O)C[C@@](O)(C(C)=O)C[C@@H]3O[C@H]1C[C@H](N)[C@H](O)[C@H](C)O1 [DNM, daunomycin, reference compound] |  |  |  |  |  |  | IC50 (MCF-7/ADR cells [2]; Homo sapiens, NCI/ADR-RES, negative control: DNM alone, incubation): 31.7 µM; efflux of [3H]-DNM (MCF-7/ADR cells [4]; control: tritium labeled DNM alone, 1 h): 63.0 ± 3.3%
 |  |  |  | COc1cc(/C=C/C(=O)O)ccc1O [FA, Ferulic acid] |  |  |  |  |  |  | Time within which FA is absorbed in the intestine [6]: 5 to 15 min; Time within which FA is absorbed in the intestine [7]: ≤ 30 min
 |  |  |  | CC(=O)O[C@H]1C(=O)[C@@]2(C)[C@H]([C@H](OC(=O)c3ccccc3)[C@]3(O)C[C@H](OC(=O)[C@H](O)[C@@H](NC(=O)c4ccccc4)c4ccccc4)C(C)=C1C3(C)C)[C@]1(OC(C)=O)CO[C@@H]1C[C@@H]2O [PTX, Paclitaxel] |  |  |  |  |  |  | Cl/F of PTX ([5]; PTX 25 mg/kg PO alone, rats): 8.22 ± 1.84 L/h; Cmax of PTX ([5]; PTX 25 mg/kg PO alone, rats): 187 ± 41 ng/mL; AUC(0-inf) ([5]; male, Sprague-Dawley, rat, plasma, PTX 25 mg/kg PO alone, rats, read-out: AUCinf of PTX): 773 ± 169 ng·h/mL; Vd/F ([5]; male, Sprague-Dawley, rat, plasma, PTX 25 mg/kg PO alone, rats, read-out: Vz/F of PTX): 35.1 ± 16.8 L; half-life ([5]; male, Sprague-Dawley, rat, plasma, PTX 25 mg/kg PO alone, rats, read-out: t1/2 of PTX (converted)): 2.8 ± 0.86 h

Compound | melting point [°C] | P-gp ATPase activity, ratio of blank (control) (human P-gp membranes; 20 μM) | P-gp ATPase activity, ratio of blank (control) (human P-gp membranes; 50 μM) | P-gp ATPase activity, ratio of blank (control) (human P-gp membranes; 100 μM) | viability at 5 µM (MCF-7/ADR cells [1]) [%] | viability at 10 µM (MCF-7/ADR cells [1]) [%] | viability at 25 µM (MCF-7/ADR cells [1]) [%] | viability at 50 µM (MCF-7/ADR cells [1]) [%] | viability at 100 µM (MCF-7/ADR cells [1]) [%] | IC50 of DNM as fraction of negative control (DNM alone) value (MCF-7/ADR cells [2]) | further results
COc1cc(/C=C/C(=O)N2CCCCC2)ccc1OCC(C)C [Compound 5b, (E)-3-(4-isobutoxy-3-methoxyphenyl)-1-(piperidin-1-yl)prop-2-en-1-one] | 96 to 97 |  |  |  | 101 | 97.8 | 96.1 | 96.1 | 92 |  | 
COc1cc(/C=C/C(=O)N(C)C)ccc1OCC(C)C [Compound 5e, (E)-3-(4-isobutoxy-3-methoxyphenyl)-N,N-dimethylacrylamide] | 109 to 111 |  |  |  | 100 | 99.4 | 95.8 | 95 | 94.8 |  | accumulation of [3H]-DNM (MCF-7/ADR cells [3]): 382.1 ± 20.4%; efflux of [3H]-DNM (MCF-7/ADR cells [4]; [8]): 39.9 ± 3.8%
